IC50 data for 18 molecules are collected here from patent publication US20240050428A1 (Cullgen (Shanghai), Inc., priority 2020, published 2024).

Read-outs that look alike come from different tables or passages of the source.

The test system of test [1] is MV4;11 cells. Description: Cell viability assay (CellTiter-Glo) in MV4;11 cells, alone or with gilteritinib. In kind it is cell-based. Conditions: Homo sapiens, MV4-11, 72 h, MV4;11 cells, three days, CellTiter-Glo, read-out: MV4.
Test [2] concerns MOLM-13 cells. As to the kind of experiment: Cell viability assay (CellTiter-Glo) in MOLM-13 cells, alone or with gilteritinib. In kind it is cell-based. Conditions: Homo sapiens, MOLM-13, 72 h, MOLM-13 cells, three days, CellTiter-Glo.
The mark [3] stands for this setting: compound alone (without gilteritinib), 11 IC50.
Where [4] appears, read: with gilteritinib 10 nM, 11 IC50 gilteritinib.
Where [5] appears, read: compound alone (without gilteritinib), read-out: MOLM-13 IC50.
Setting [6] is: with gilteritinib 20 nM, read-out: MOLM-13 IC50 gilteritinib.

With `CN1CCN(c2ccc3ncc(-c4cnn([C@H]5C[C@H](CNc6ccc7c(c6)C(=O)N(C6CCC(=O)NC6=O)C7=O)C5)c4)nc3c2)CC1` (stereo partly drawn) [GS-185, 2-(2,6-Dioxopiperidin-3-yl)-5-(((trans-3-(4-(7-(4-methylpiperazin-1-yl)quinoxalin-2-yl)-1H-pyrazol-1-yl)cyclobutyl)methyl)amino)isoindoline-1,3-dione], the IC50 was 100 to 1000 nM in test [1] (setting [3]), 10 to 100 nM in test [1] (setting [4]), 100 to 1000 nM in test [2] (setting [5]) and 10 to 100 nM in test [2] (setting [6]).

Regarding `O=C1CCC(N2C(=O)c3ccc(NC[C@H]4C[C@@H](n5cc(-c6cnc7ccc(N8CCNCC8)cc7n6)cn5)C4)cc3C2=O)C(=O)N1` (stereo partly drawn) [GS-186, 2-(2,6-Dioxopiperidin-3-yl)-5-(((cis-3-(4-(7-(piperazin-1-yl)quinoxalin-2-yl)-1H-pyrazol-1-yl)cyclobutyl)methyl)amino)isoindoline-1,3-dione], the IC50 is greater than 1000 nM in test [1] (setting [3]), greater than 1000 nM in test [1] (setting [4]), greater than 1000 nM in test [2] (setting [5]) and 100 to 1000 nM in test [2] (setting [6]).

In the case of `O=C1CCC(N2C(=O)c3ccc(NC[C@H]4C[C@H](n5cc(-c6cnc7ccc(N8CCNCC8)cc7n6)cn5)C4)cc3C2=O)C(=O)N1` (stereo partly drawn) [GS-187, 2-(2,6-Dioxopiperidin-3-yl)-5-(((trans-3-(4-(7-(piperazin-1-yl)quinoxalin-2-yl)-1H-pyrazol-1-yl)cyclobutyl)methyl)amino)isoindoline-1,3-dione], the IC50 in test [1] (setting [3]), in test [1] (setting [4]), in test [2] (setting [5]) and in test [2] (setting [6]) was greater than 1000 nM in each case.

`O=C1CCC(N2C(=O)c3ccc(NCCC[C@H]4C[C@H](n5cc(-c6cnc7ccc(N8CCOCC8)cc7n6)cn5)C4)cc3C2=O)C(=O)N1` (stereo partly drawn) [GS-188, 2-(2,6-Dioxopiperidin-3-yl)-5-((3-(trans-3-(4-(7-morpholinoquinoxalin-2-yl)-1H-pyrazol-1-yl)cyclobutyl)propyl)amino)isoindoline-1,3-dione]: the IC50 in test [1] (setting [3]) was 10 to 100 nM; in test [1] (setting [4]), less than 10 nM; in test [2] (setting [5]), 10 to 100 nM; in test [2] (setting [6]) it was less than 10 nM.

For the molecule `O=C1CCC(N2C(=O)c3ccc(NC[C@H]4C[C@@H](n5cc(-c6cnc7ccc(N8CCOCC8)cc7n6)cn5)C4)cc3C2=O)C(=O)N1` (stereo partly drawn) [GS-189, 2-(2,6-Dioxopiperidin-3-yl)-5-(((cis-3-(4-(7-morpholinoquinoxalin-2-yl)-1H-pyrazol-1-yl)cyclobutyl)methyl)amino)isoindoline-1,3-dione], the IC50 is 100 to 1000 nM in test [1] (setting [3]), greater than 1000 nM in test [1] (setting [4]), 100 to 1000 nM in test [2] (setting [5]) and 100 to 1000 nM in test [2] (setting [6]).

Take `CN1CCN(c2ccc3ncc(-c4cnn([C@H]5C[C@@H](CNc6ccc7c(c6)C(=O)N(C6CCC(=O)NC6=O)C7=O)C5)c4)nc3c2)CC1` (stereo partly drawn) [GS-190, 2-(2,6-Dioxopiperidin-3-yl)-5-(((cis-3-(4-(7-(4-methylpiperazin-1-yl)quinoxalin-2-yl)-1H-pyrazol-1-yl)cyclobutyl)methyl)amino)isoindoline-1,3-dione]: the IC50 is greater than 1000 nM in test [1] (setting [3]), greater than 1000 nM in test [1] (setting [4]), greater than 1000 nM in test [2] (setting [5]) and 100 to 1000 nM in test [2] (setting [6]).

Consider `O=C1CCC(N2C(=O)c3ccc(NC[C@H]4C[C@H](n5cc(-c6cnc7ccc(N8CCOCC8)cc7n6)cn5)C4)cc3C2=O)C(=O)N1` (stereo partly drawn) [GS-191, 2-(2,6-Dioxopiperidin-3-yl)-5-(((trans-3-(4-(7-morpholinoquinoxalin-2-yl)-1H-pyrazol-1-yl)cyclobutyl)methyl)amino)isoindoline-1,3-dione], for which the IC50 in test [1] (setting [3]) is 10 to 100 nM; in test [1] (setting [4]), less than 10 nM; in test [2] (setting [5]) it was 10 to 100 nM; in test [2] (setting [6]) it was less than 10 nM.

As to `O=C1CCC(N2C(=O)c3ccc(NCC4CC(C(=O)N5CCC(n6cc(-c7cnc8ccccc8n7)cn6)CC5)C4)cc3C2=O)C(=O)N1` (stereo not drawn) [GS-192, 2-(2,6-Dioxopiperidin-3-yl)-5-(((3-(4-(4-(quinoxalin-2-yl)-1H-pyrazol-1-yl)piperidine-1-carbonyl)cyclobutyl)methyl)amino)isoindoline-1,3-dione], the IC50 in test [1] (setting [3]) is 100 to 1000 nM; in test [1] (setting [4]), 10 to 100 nM; in test [2] (setting [5]), greater than 1000 nM; in test [2] (setting [6]), 10 to 100 nM.

Take `O=C1CCC(N2C(=O)c3ccc(NC[C@H]4C[C@@H](n5cc(-c6cnc7ccc(C8CCOCC8)cc7n6)cn5)C4)cc3C2=O)C(=O)N1` (stereo partly drawn) [GS-193, 2-(2,6-Dioxopiperidin-3-yl)-5-(((cis-3-(4-(7-(tetrahydro-2H-pyran-4-yl)quinoxalin-2-yl)-1H-pyrazol-1-yl)cyclobutyl)methyl)amino)isoindoline-1,3-dione]: the IC50 in test [1] (setting [3]) is greater than 1000 nM; in test [1] (setting [4]), 100 to 1000 nM; in test [2] (setting [5]), 100 to 1000 nM; in test [2] (setting [6]), 100 to 1000 nM.

In the case of `O=C1CCC(N2C(=O)c3ccc(NCCC45CC(C(=O)N6CCC(n7cc(-c8cnc9ccccc9n8)cn7)CC6)(C4)C5)cc3C2=O)C(=O)N1` (stereo not drawn) [GS-194, 2-(2,6-Dioxopiperidin-3-yl)-5-((2-(3-(4-(4-(quinoxalin-2-yl)-1H-pyrazol-1-yl)piperidine-1-carbonyl)bicyclo[1.1.1]pentan-1-yl)ethyl)amino)isoindoline-1,3-dione], the IC50 is 10 to 100 nM in test [1] (setting [3]), less than 10 nM in test [1] (setting [4]), 100 to 1000 nM in test [2] (setting [5]) and less than 10 nM in test [2] (setting [6]).

In the case of `O=C1CCC(N2C(=O)c3ccc(NCCC[C@H]4C[C@H](n5cc(-c6cnc7ccc(N8CCNCC8)cc7n6)cn5)C4)cc3C2=O)C(=O)N1` (stereo partly drawn) [GS-195, 2-(2,6-Dioxopiperidin-3-yl)-5-((3-(trans-3-(4-(7-(piperazin-1-yl)quinoxalin-2-yl)-1H-pyrazol-1-yl)cyclobutyl)propyl)amino)isoindoline-1,3-dione], the IC50 in test [1] (setting [3]) was 100 to 1000 nM; in test [1] (setting [4]), less than 10 nM; in test [2] (setting [5]) it was 100 to 1000 nM; in test [2] (setting [6]), less than 10 nM.

Consider `O=C1CCC(N2C(=O)c3ccc(NCCC[C@H]4C[C@H](n5cc(-c6cnc7ccc(NC8CCNCC8)cc7n6)cn5)C4)cc3C2=O)C(=O)N1` (stereo partly drawn) [GS-196, 2-(2,6-Dioxopiperidin-3-yl)-5-((3-(trans-3-(4-(7-(piperidin-4-ylamino)quinoxalin-2-yl)-1H-pyrazol-1-yl)cyclobutyl)propyl)amino)isoindoline-1,3-dione], for which the IC50 in test [1] (setting [3]) was 10 to 100 nM; in test [1] (setting [4]), less than 10 nM; in test [2] (setting [5]), 10 to 100 nM; in test [2] (setting [6]), less than 10 nM.

On to `N#Cc1cccc2ncc(-c3cnn([C@H]4C[C@H](CCCNc5ccc6c(c5)C(=O)N(C5CCC(=O)NC5=O)C6=O)C4)c3)nc12` (stereo partly drawn) [GS-197, 3-(1-(trans-3-(3-((2-(2,6-Dioxopiperidin-3-yl)-1,3-dioxoisoindolin-5-yl)amino)propyl)cyclobutyl)-1H-pyrazol-4-yl)quinoxaline-5-carbonitrile], for which the IC50 in test [1] (setting [3]) lay within 10 to 100 nM; in test [1] (setting [4]), 10 to 100 nM; in test [2] (setting [5]) it was 100 to 1000 nM; in test [2] (setting [6]), 10 to 100 nM.

For `N#Cc1ccc2ncc(-c3cnn([C@H]4C[C@H](CCCNc5ccc6c(c5)C(=O)N(C5CCC(=O)NC5=O)C6=O)C4)c3)nc2c1` (stereo partly drawn) [GS-198, 3-(1-(trans-3-(3-((2-(2,6-Dioxopiperidin-3-yl)-1,3-dioxoisoindolin-5-yl)amino)propyl)cyclobutyl)-1H-pyrazol-4-yl)quinoxaline-6-carbonitrile], the IC50 was 10 to 100 nM in test [1] (setting [3]), 10 to 100 nM in test [1] (setting [4]), 100 to 1000 nM in test [2] (setting [5]) and less than 10 nM in test [2] (setting [6]).

As for `O=C1CCC(N2C(=O)c3ccc(NCCC[C@H]4C[C@H](n5cc(-c6cnc7ccc(C8CCNCC8)cc7n6)cn5)C4)cc3C2=O)C(=O)N1` (stereo partly drawn) [GS-199, 2-(2,6-Dioxopiperidin-3-yl)-5-((3-(trans-3-(4-(7-(piperidin-4-yl)quinoxalin-2-yl)-1H-pyrazol-1-yl)cyclobutyl)propyl)amino)isoindoline-1,3-dione], the IC50 in test [1] (setting [3]) was 10 to 100 nM; in test [1] (setting [4]) it was less than 10 nM; in test [2] (setting [5]) it was 100 to 1000 nM; in test [2] (setting [6]) it was less than 10 nM.

Turning to `Cc1nn([C@H]2C[C@H](CNc3ccc4c(c3)C(=O)N(C3CCC(=O)NC3=O)C4=O)C2)cc1-c1cnc2ccccc2n1` (stereo partly drawn) [GS-200, 2-(2,6-Dioxopiperidin-3-yl)-5-(((trans-3-(3-methyl-4-(quinoxalin-2-yl)-1H-pyrazol-1-yl)cyclobutyl)methyl)amino)isoindoline-1,3-dione], the IC50 in test [1] (setting [3]) was in the range of 100 to 1000 nM; in test [1] (setting [4]), 10 to 100 nM; in test [2] (setting [5]) it was 100 to 1000 nM; in test [2] (setting [6]), 10 to 100 nM.

`O=C1CCC(N2C(=O)c3ccc(NCCC[C@H]4C[C@H](n5cc(-c6cnc7ccc(F)cc7n6)cn5)C4)cc3C2=O)C(=O)N1` (stereo partly drawn) [GS-201, 2-(2,6-Dioxopiperidin-3-yl)-5-((3-(trans-3-(4-(7-fluoroquinoxalin-2-yl)-1H-pyrazol-1-yl)cyclobutyl)propyl)amino)isoindoline-1,3-dione]: the IC50 in test [1] (setting [3]) lay in the range of 100 to 1000 nM; in test [1] (setting [4]), 10 to 100 nM; in test [2] (setting [5]), 100 to 1000 nM; in test [2] (setting [6]) it was 10 to 100 nM.

With `O=C1CCC(N2C(=O)c3ccc(NCCC[C@H]4C[C@H](n5cc(-c6cnc7ccc(OC8CC8)cc7n6)cn5)C4)cc3C2=O)C(=O)N1` (stereo partly drawn) [GS-202, 5-((3-(trans-3-(4-(7-Cyclopropoxyquinoxalin-2-yl)-1H-pyrazol-1-yl)cyclobutyl)propyl)amino)-2-(2,6-dioxopiperidin-3-yl)isoindoline-1,3-dione], the IC50 is 10 to 100 nM in test [1] (setting [3]), less than 10 nM in test [1] (setting [4]), 100 to 1000 nM in test [2] (setting [5]) and less than 10 nM in test [2] (setting [6]).
